35 compounds from patent US20160016951A1 (Merck Patent GmbH, priority 2014, published 2016) can be followed below.

Structures can show the parent of a compound that is named as a salt. Where two headings read alike, the source gives them in different places.

This experiment concerns the target T1, CDK8 (CDK8/CycC) (Homo sapiens, UniProt P49336).
T1 construct: purchased Invitrogen PV4402
The experiment in a line: FRET based Lanthascreen binding competition assay. The method, then:
FRET based Lanthascreen binding competition assay: A dye-labeled ATP competitive probe served as a FRET acceptor upon binding to CDK8 labeled with a strepavidin —Eu-chelate (via abiotinylated anti His antibody). […] In case this probe was competed by an inhibitor as such a signal cannot be generated any more. The CDK8 used for this assay was a protein co-expressed with CycC.
The assay procedure for an assay in a 1536 well plate was performed according to the following: 2 μL CDK8/biotin-anti-His Ab/SA-Eu mix in Assay buffer were pipetted into the wells of a micro plate.
1 μL compound in 20 mM Hepes buffer/5% DMSO was added. The plate was shaken for 30 sec and incubated for 20 min at RT. 2 μL Alexa647-probe in assay buffer were added. The plate was shaken for 30 sec again and incubated for 60 min at RT in the dark. Then the plate was read out on a Perkin Elmer Envision (mode LANCE/TRF, excitation 340 nm emission 650 nm).
Background: Time-resolved FRET reads energy transfer from a long-lived donor to a nearby acceptor.

Where [1] appears, read: 5 nM CDK8/CycC, 10 nM Alexa647-Tracer, 1% DMSO, 60 min at RT, read-out: IC50 CDK8 binding.

T1 sequence (P49336 whole entry): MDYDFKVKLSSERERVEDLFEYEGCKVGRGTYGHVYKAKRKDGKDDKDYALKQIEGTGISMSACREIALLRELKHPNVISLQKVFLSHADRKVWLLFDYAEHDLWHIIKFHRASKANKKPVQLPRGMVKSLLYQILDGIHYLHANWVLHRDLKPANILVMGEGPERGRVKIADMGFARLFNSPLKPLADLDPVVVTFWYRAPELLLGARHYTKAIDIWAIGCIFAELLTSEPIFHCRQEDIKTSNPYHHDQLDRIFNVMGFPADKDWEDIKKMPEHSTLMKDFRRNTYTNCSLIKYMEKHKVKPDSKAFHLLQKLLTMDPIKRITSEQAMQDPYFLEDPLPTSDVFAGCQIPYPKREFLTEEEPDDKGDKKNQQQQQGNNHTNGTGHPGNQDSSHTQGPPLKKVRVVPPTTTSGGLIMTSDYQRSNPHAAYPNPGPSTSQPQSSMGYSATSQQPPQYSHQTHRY
T1 sequence (P24863 whole entry partner): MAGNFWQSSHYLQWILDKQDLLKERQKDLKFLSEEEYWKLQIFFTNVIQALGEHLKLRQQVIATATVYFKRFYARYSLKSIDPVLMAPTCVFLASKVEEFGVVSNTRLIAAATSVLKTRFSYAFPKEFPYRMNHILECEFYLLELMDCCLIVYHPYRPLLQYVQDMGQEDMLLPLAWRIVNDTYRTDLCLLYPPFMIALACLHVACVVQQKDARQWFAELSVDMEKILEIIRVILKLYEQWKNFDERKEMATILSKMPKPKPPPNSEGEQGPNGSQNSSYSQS

As usually defined, the IC50 is the midpoint of a concentration-inhibition curve. As to `CN1C(=O)CCc2cc(-c3cnc(N)c4ccc(C(=O)N5CC(F)(F)C5)cc34)ccc21` [Compound 172, 6-[1-Amino-6-(3,3-difluoro-azetidine-1-carbonyl)-isoquinolin-4-yl]-1-methyl-3,4-dihydro-1H-quinolin-2-one], the IC50 under setting [1] lay within 101 to 500 nM. Turning to `C[C@H](NC(=O)c1ccc2cncc(-c3ccc(-c4cnn(C)c4)cc3)c2n1)c1ccccc1` [Compound 27, (S)-8-(4-(1-methyl-1H-pyrazol-4-yl)phenyl)-N-(1-phenylethyl)-1,6-naphthyridine-2-carboxamide], the IC50 under setting [1] is below 10 nM. For `Cn1cc(-c2ccc(-c3cncc4ccc(C(=O)O)cc34)cc2)cn1` [Compound 95, 4-(4-(1-methyl-1H-pyrazol-4-yl)phenyl)isoquinoline-6-carboxylic acid hydrochloride], the IC50 is below 10 nM. In the case of `COC1CN(C(=O)c2ccc3cncc(-c4ccc(-c5cnn(C(C)C)c5)cc4)c3n2)C1` [Compound 153, (8-(4-(1-isopropyl-1H-pyrazol-4-yl)phenyl)-1,6-naphthyridin-2-yl)(3-methoxyazetidin-1-yl)methanone], under setting [1], the IC50 was below 10 nM.

`Cn1cc(-c2ccc(-c3cncc4ccc(C(=O)N5CCC(F)(F)C5)cc34)cc2)cn1` [Compound 195, (3,3-difluoropyrrolidin-1-yl)(4-(4-(1-methyl-1H-pyrazol-4-yl)phenyl)isoquinolin-6-yl)methanone]: the IC50 under setting [1] lay within 10 to 100 nM. On the same count and under the same terms, the result for `CN(C)C(=O)c1ccc2cncc(-c3ccc4c(c3)CS(=O)(=O)N4)c2n1` [Compound 46, 8-(2,2-Dioxo-2,3-dihydro-1H-benzo[c]isothiazol-5-yl)-[1,6]naphthyridine-2-carboxylic acid dimethylamide] reads 10 to 100 nM. Take `CC(C)(O)Cn1cc(-c2ccc(-c3cncc4ccc(C(=O)N5CCCC5)cc34)cc2)cn1` [Compound 134]: the IC50 under setting [1] lay in the range of 10 to 100 nM. Take `Cn1cc(-c2ccc(-c3cncc4ccc(C(=O)N5CCCC(F)(F)C5)nc34)cc2)cn1` [Compound 82, (3,3-difluoropiperidin-1-yl)(8-(4-(1-methyl-1H-pyrazol-4-yl)phenyl)-1,6-naphthyridin-2-yl)methanone]: the IC50 under setting [1] lay in the range of 10 to 100 nM. With `COC1CN(C(=O)c2ccc3c(N)ncc(-c4ccc5c(c4)N(C)C(=O)C5)c3c2)C1` [Compound 173, 6-[1-Amino-6-(3-methoxy-azetidine-1-carbonyl)-isoquinolin-4-yl]-1-methyl-1,3-dihydro-indol-2-one], the IC50 under setting [1] was in the range of 10 to 100 nM. As to `Cc1cc(-c2cnn(C)c2)ccc1-c1cncc2ccc(C(N)=O)nc12` [Compound 19, 8-(2-methyl-4-(1-methyl-1H-pyrazol-4-yl)phenyl)-1,6-naphthyridine-2-carboxamide], the IC50 under setting [1] was below 10 nM. With `COC1CN(C(=O)c2ccc3c(N)ncc(-c4ccc5c(c4)CC(=O)N5C)c3c2)C1` [Compound 177, 5-[1-Amino-6-(3-methoxy-azetidine-1-carbonyl)-isoquinolin-4-yl]-1-methyl-1,3-dihydro-indol-2-one], the IC50 under setting [1] fell in the range of 10 to 100 nM. Same read-out and setting: with `COC1CN(C(=O)c2ccc3cncc(-c4ccc(-c5cn(C)nc5C(F)(F)F)cc4)c3n2)C1` [Compound 49, (3-methoxyazetidin-1-yl)(8-(4-(1-methyl-3-(trifluoromethyl)-1H-pyrazol-4-yl)phenyl)-1,6-naphthyridin-2-yl)methanone] the figure was 10 to 100 nM; with `Cc1cncc2ccc(C(=O)N3CCC[C@H]3c3ccc(Cl)cc3)nc12` [Compound 83, (S)-(2-(4-chlorophenyl)pyrrolidin-1-yl)(8-methyl-1,6-naphthyridin-2-yl)methanone], below 10 nM. Regarding `Cn1cc(-c2ccc(-c3cncc4ccc(C(N)=O)nc34)c(F)c2)cn1` [Compound 14, 8-(2-fluoro-4-(1-methyl-1H-pyrazol-4-yl)phenyl)-1,6-naphthyridine-2-carboxamide], the IC50 under setting [1] is below 10 nM. With `Cc1cncc2ccc(C(=O)N[C@@H](C)c3ccccc3)nc12` [Compound 62, (S)-8-methyl-N-(1-phenylethyl)-1,6-naphthyridine-2-carboxamide], the IC50 under setting [1] was in the range of 101 to 500 nM. The same measure, in the same setting: with `Cn1cc(-c2ccc(-c3cncc4ccc(-c5nnnn5C)cc34)cc2)cn1` [Compound 123, 4-(4-(1-methyl-1H-pyrazol-4-yl)phenyl)-6-(1-methyl-1H-tetrazol-5-yl)isoquinoline] the figure was 10 to 100 nM.

Turning to `COC1CN(C(=O)c2ccc3cncc(-c4ccc(-c5ccn(C)n5)cc4)c3n2)C1` [Compound 156, (3-methoxyazetidin-1-yl)(8-(4-(1-methyl-1H-pyrazol-3-yl)phenyl)-1,6-naphthyridin-2-yl)methanone], the IC50 under setting [1] fell in the range of 10 to 100 nM. `CN1C(=O)CCc2cc(-c3cncc4ccc(C(=O)N5CC(F)(F)C5)cc34)ccc21` [Compound 158, 6-[6-(3,3-Difluoro-azetidine-1-carbonyl)-isoquinolin-4-yl]-1-methyl-3,4-dihydro-1H-quinolin-2-one]: the IC50 under setting [1] lay in the range of 10 to 100 nM. Same read-out and setting: the result for `CN1C(=O)Cc2ccc(-c3cncc4ccc(C(=O)N5CC(F)(F)C5)cc34)cc21` [Compound 163, 6-[6-(3,3-Difluoro-azetidine-1-carbonyl)-isoquinolin-4-yl]-1-methyl-1,3-dihydro-indol-2-one] reads 10 to 100 nM; that for `O=C(c1ccc2cncc(Br)c2n1)N1CCC[C@H]1c1ccc(F)cc1` [Compound 90, (S)-(8-bromo-1,6-naphthyridin-2-yl)(2-(4-fluorophenyl)pyrrolidin-1-yl)methanone], 10 to 100 nM. Take `Cc1cc(C(N)=O)nc2c(-c3ccc(-c4cnn(C)c4)cc3)cncc12` [Compound 64, 4-Methyl-8-(4-(1-methyl-1H-pyrazol-4-yl)phenyl)-1,6-naphthyridine-2-carboxamide]: under setting [1], the IC50 fell in the range of 101 to 500 nM.

Take `Cc1cnc(N)c2ccc(C(=O)N3CCC[C@H]3c3ccc(Cl)cc3)nc12` [Compound 88, (S)-(5-amino-8-methyl-1,6-naphthyridin-2-yl)(2-(4-chlorophenyl)pyrrolidin-1-yl)methanone]: the IC50 under setting [1] lay in the range of 10 to 100 nM. As to `O=C(c1ccc2cnccc2n1)N1CCC[C@H]1c1ccc(Br)cc1` [Compound 84, (S)-(2-(4-bromophenyl)pyrrolidin-1-yl)(1,6-naphthyridin-2-yl)methanone], the IC50 under setting [1] lay in the range of 10 to 100 nM. As for `COC1CN(C(=O)c2ccc3c(N)ncc(-c4ccc(-c5ccn(C)n5)cc4)c3n2)C1` [Compound 160, (5-amino-8-(4-(1-methyl-1H-pyrazol-3-yl)phenyl)-1,6-naphthyridin-2-yl)(3-methoxyazetidin-1-yl)methanone], under setting [1], the IC50 is 101 to 500 nM. Take `CN(CCO)C(=O)c1ccc2cncc(-c3ccc4c(c3)CS(=O)(=O)N4)c2n1` [Compound 45, 8-(2,2-Dioxo-2,3-dihydro-1H-benzo[c]isothiazol-5-yl)-[1,6]naphthyridine-2-carboxylic acid (2-hydroxy-ethyl)-methyl-amide]: under setting [1], the IC50 was in the range of 10 to 100 nM.

Turning to `COC1CN(C(=O)c2ccc3cncc(-c4ccc5c(cnn5CC(C)(C)O)c4)c3n2)C1` [Compound 52, (8-(1-(2-hydroxy-2-methylpropyl)-1H-indazol-5-yl)-1,6-naphthyridin-2-yl)(3-methoxyazetidin-1-yl)methanone], the IC50 under setting [1] fell in the range of 10 to 100 nM. For the compound `COCCN(c1ccc2cncc(-c3ccc(-c4cnn(C)c4)cc3)c2c1)S(C)(=O)=O` [Compound 167, N-(2-methoxyethyl)-N-(4-(4-(1-methyl-1H-pyrazol-4-yl)phenyl)isoquinolin-6-yl)methanesulfonamide], under setting [1], the IC50 lay in the range of 101 to 500 nM. On the same count and under the same terms, with `CC(C)(O)Cn1cc(-c2ccc(-c3cncc4ccc(C(=O)N5CC(F)(F)C5)cc34)cc2)cn1` [Compound 136] the figure was 10 to 100 nM; with `CNC(=O)c1ccc2c(O)ncc(-c3ccc4c(c3)CS(=O)(=O)N4)c2n1` [Compound 63, 8-(2,2-dioxido-1,3-dihydrobenzo[c]isothiazol-5-yl)-5-hydroxy-N-methyl-1,6-naphthyridine-2-carboxamide], 101 to 500 nM; with `CNC(=O)c1ccc2cncc(-c3ccc(-c4cnn(C)c4)cc3C)c2n1` [Compound 43, N-methyl-8-(2-methyl-4-(1-methyl-1H-pyrazol-4-yl)phenyl)-1,6-naphthyridine-2-carboxamide], 10 to 100 nM. As for `Nc1ncc(-c2ccc3c(c2)CS(=O)(=O)N3)c2nc(C(=O)N3CCC(F)(F)C3)ccc12` [Compound 50, (5-Amino-8-(2,2-dioxido-1,3-dihydrobenzo[c]isothiazol-5-yl)-1,6-naphthyridin-2-yl)(3,3-difluoropyrrolidin-1-yl)methanone], the IC50 under setting [1] is 10 to 100 nM.

As to `Cc1nc(-c2ccc(-c3cnc(N)c4ccc(C(=O)N5CC(F)(F)C5)cc34)cc2)cn1C` [Compound 176, {1-Amino-4-[4-(1,2-dimethyl-1H-imidazol-4-yl)-phenyl]-isoquinolin-6-yl}-(3,3-difluoro-azetidin-1-yl)-methanone], under setting [1], the IC50 was in the range of 10 to 100 nM. As for `Cn1cc(-c2ccc(-c3cncc4ccc(C(=O)N5CCNCC5)cc34)cc2)cn1` [Compound 102, (4-(4-(1-methyl-1H-pyrazol-4-yl)phenyl)isoquinolin-6-yl)(piperazin-1-yl)methanone], the IC50 under setting [1] was below 10 nM. On the same count and under the same terms, the result for `O=C(c1ccc2cnccc2c1)N1CCC[C@H]1c1ccc(Cl)cc1` [Compound 113, (S)-(2-(4-chlorophenyl)pyrrolidin-1-yl)(isoquinolin-6-yl)methanone] reads 10 to 100 nM; that for `Cn1cc(-c2ccc(-c3cncc4ccc(C(=O)N5CC(C)(F)C5)nc34)cc2)cn1` [Compound 180, (3-fluoro-3-methylazetidin-1-yl)(8-(4-(1-methyl-1H-pyrazol-4-yl)phenyl)-1,6-naphthyridin-2-yl)methanone], below 10 nM.
